Experiments:
Type in all cases: in vivo
[1] = tested on: johnsongrass (Sorghum halepense, SORHA); assay: Post-emerge test, greenhouse herbicide activity screening; settings: rating scale 0-100 (0 no damage, 100 complete death), 14 days after application
Method in brief: (§1)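 Sandy loam pots; pre-emerge: sown 1 d pre-spray, surface-watered after, then bottom-watered. Post-emerge: sown 8–21 d before, 2–3 leaf stage, + 0.25% v/v NIS, bottom-watered. Acetone, 187 l/ha track spray, 15–1000 g ai/ha. 0–100 injury score, day 14.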

[2] = tested on: velvetleaf (Abutilon theophrasti, ABUTH); assay: as above; settings: rating scale 0-100 (0 no damage, 100 complete death), 14 days after application
Method in brief: as §1

[3] = tested on: ivyleaf morningglory (Ipomoea hederacea, IPOHE); assay: as above; settings: rating scale 0-100 (0 no damage, 100 complete death), 14 days after application
Method in brief: as §1

[4] = tested on: large crabgrass (Digitaria sanguinalis, DIGSA); assay: as above; settings: rating scale 0-100 (0 no damage, 100 complete death), 14 days after application
Method in brief: as §1

[5] = tested on: redroot pigweed (Amaranthus retroflexus, AMARE); assay: as above; settings: rating scale 0-100 (0 no damage, 100 complete death), 14 days after application
Method in brief: as §1

[6] = tested on: lambsquarters (Chenopodium album, CHEAL); assay: as above; settings: rating scale 0-100 (0 no damage, 100 complete death), 14 days after application
Method in brief: as §1

[7] = tested on: sicklepod (Cassia obtusifolia, CASOB); assay: as above; settings: rating scale 0-100 (0 no damage, 100 complete death), 14 days after application
Method in brief: as §1

[8] = tested on: green foxtail (Setaria viridis, SETVI); assay: as above; settings: rating scale 0-100 (0 no damage, 100 complete death), 14 days after application
Method in brief: as §1

[9] = tested on: common ragweed (Ambrosia artemisizfolia L., AMBEL); assay: as above; settings: rating scale 0-100 (0 no damage, 100 complete death), 14 days after application
Method in brief: as §1

[10] = tested on: barnyardgrass (Echinochloa crus-galli, ECHCG); assay: as above; settings: rating scale 0-100 (0 no damage, 100 complete death), 14 days after application
Method in brief: as §1

[11] = tested on: redroot pigweed (Amaranthus retroflexus, AMARE); assay: Pre-emerge test, greenhouse herbicide activity screening; settings: rating scale 0-100, 14 days after application
Method in brief: (§2)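 Rating: 0–100 visual injury, 14 DAA. Application: acetone, 187 l/ha, 15–1000 g ai/ha, flat-fan track sprayer with nozzle 40–45 cm above soil or canopy. Post-emerge runs used 0.25% v/v surfactant on 2–3 leaf plants.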

[12] = tested on: field corn (Zea mays L., var. Dekalb 535, CORN); assay: Post-emerge test, crop safety; settings: rating scale 0-100 (0 no damage, 100 complete death), 14 days after application
Method in brief: (§3)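 Plants grown in 10 cm pots of sandy loam mix received acetone-dissolved compounds through a moving flat-fan nozzle. Doses ranged from 15 to 1000 g ai/ha. Pre-emerge pots were seeded one day earlier, post-emerge pots 8–21 days earlier. Fourteen days on, each pot was graded 0–100 for damage.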

[13] = tested on: upland rice (Oryza sp., var. Tebonnet, RICE); assay: Post-emerge test, crop safety; settings: rating scale 0-100 (0 no damage, 100 complete death), 14 days after application
Method in brief: as §3

[14] = tested on: johnsongrass (Sorghum halepense, SORHA); assay: Pre-emerge test, greenhouse herbicide activity screening; settings: rating scale 0-100, 14 days after application
Method in brief: as §2

[15] = tested on: velvetleaf (Abutilon theophrasti, ABUTH); assay: as above; settings: rating scale 0-100, 14 days after application
Method in brief: as §2

[16] = tested on: ivyleaf morningglory (Ipomoea hederacea, IPOHE); assay: as above; settings: rating scale 0-100, 14 days after application
Method in brief: as §2

[17] = tested on: large crabgrass (Digitaria sanguinalis, DIGSA); assay: as above; settings: rating scale 0-100, 14 days after application
Method in brief: as §2

[18] = tested on: lambsquarters (Chenopodium album, CHEAL); assay: as above; settings: rating scale 0-100, 14 days after application
Method in brief: as §2

[19] = tested on: sicklepod (Cassia obtusifolia, CASOB); assay: as above; settings: rating scale 0-100, 14 days after application
Method in brief: as §2

[20] = tested on: green foxtail (Setaria viridis, SETVI); assay: as above; settings: rating scale 0-100, 14 days after application
Method in brief: as §2

[21] = tested on: barnyardgrass (Echinochloa crus-galli, ECHCG); assay: as above; settings: rating scale 0-100, 14 days after application
Method in brief: as §2

[22] = tested on: field corn (Zea mays L., var. Dekalb 535, CORN); assay: Pre-emerge test, crop safety; settings: rating scale 0-100, 14 days after application
Method in brief: (§4)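 Fourteen days after spraying, crop and weed injury was graded visually from 0, no effect, to 100, every plant dead. Test substances were dissolved in acetone and applied at 15–1000 g ai/ha with a flat-fan nozzle. Application was either pre-emergence, one day after sowing, or post-emergence at the 2–3 leaf stage.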

[23] = tested on: upland rice (Oryza sp., var. Tebonnet, RICE); assay: Pre-emerge test, crop safety; settings: rating scale 0-100, 14 days after application
Method in brief: as §4

Structure (SMILES): COCCOC(=O)C(C)(Cl)Cc1c(OC)c(Cl)cc(F)c1-n1c(=O)cc(C(F)(F)F)n(C)c1=O (stereo not shown) [14-47]
- Post-emerge Herbicidal Activity, phytotoxicity rating SORHA ([1]; Rate 63 g ai/ha): 70
- Post-emerge Herbicidal Activity, phytotoxicity rating SORHA ([1]; Rate 250 g ai/ha): 80
- Post-emerge Herbicidal Activity, phytotoxicity rating ABUTH ([2]; Rate 63 g ai/ha): 100
- Post-emerge Herbicidal Activity, phytotoxicity rating ABUTH ([2]; Rate 250 g ai/ha): 100
- Post-emerge Herbicidal Activity, phytotoxicity rating IPOHE ([3]; Rate 63 g ai/ha): 80
- Post-emerge Herbicidal Activity, phytotoxicity rating IPOHE ([3]; Rate 250 g ai/ha): 100
- Post-emerge Herbicidal Activity, phytotoxicity rating DIGSA ([4]; Rate 63 g ai/ha): 95
- Post-emerge Herbicidal Activity, phytotoxicity rating DIGSA ([4]; Rate 250 g ai/ha): 100
- Post-emerge Herbicidal Activity, phytotoxicity rating AMARE ([5]; Rate 63 g ai/ha): 100
- Post-emerge Herbicidal Activity, phytotoxicity rating AMARE ([5]; Rate 250 g ai/ha): 100
- Post-emerge Herbicidal Activity, phytotoxicity rating CHEAL ([6]; Rate 63 g ai/ha): 100
- Post-emerge Herbicidal Activity, phytotoxicity rating CHEAL ([6]; Rate 250 g ai/ha): 100
- Post-emerge Herbicidal Activity, phytotoxicity rating CASOB ([7]; Rate 63 g ai/ha): 0
- Post-emerge Herbicidal Activity, phytotoxicity rating CASOB ([7]; Rate 250 g ai/ha): 70
- Post-emerge Herbicidal Activity, phytotoxicity rating SETVI ([8]; Rate 63 g ai/ha): 90
- Post-emerge Herbicidal Activity, phytotoxicity rating SETVI ([8]; Rate 250 g ai/ha): 100
- Post-emerge Herbicidal Activity, phytotoxicity rating AMBEL ([9]; Rate 63 g ai/ha): 100
- Post-emerge Herbicidal Activity, phytotoxicity rating AMBEL ([9]; Rate 250 g ai/ha): 100
- Post-emerge Herbicidal Activity, phytotoxicity rating ECHCG ([10]; Rate 63 g ai/ha): 100
- Post-emerge Herbicidal Activity, phytotoxicity rating ECHCG ([10]; Rate 250 g ai/ha): 100
- Pre-emerge herbicidal activity, phytotoxicity rating AMARE ([11]; 63 g ai/ha): 100
- Pre-emerge herbicidal activity, phytotoxicity rating AMARE ([11]; 250 g ai/ha): 100
- Post-emerge phytotoxicity rating CORN (crop damage) ([12]; Rate 63 g ai/ha): 40
- Post-emerge phytotoxicity rating CORN (crop damage) ([12]; Rate 250 g ai/ha): 100
- Post-emerge phytotoxicity rating RICE (crop damage) ([13]; Rate 63 g ai/ha): 100
- Post-emerge phytotoxicity rating RICE (crop damage) ([13]; Rate 250 g ai/ha): 100
- Pre-emerge herbicidal activity, phytotoxicity rating SORHA ([14]; 63 g ai/ha): 0
- Pre-emerge herbicidal activity, phytotoxicity rating SORHA ([14]; 250 g ai/ha): 20
- Pre-emerge herbicidal activity, phytotoxicity rating ABUTH ([15]; 63 g ai/ha): 100
- Pre-emerge herbicidal activity, phytotoxicity rating ABUTH ([15]; 250 g ai/ha): 100
- Pre-emerge herbicidal activity, phytotoxicity rating IPOHE ([16]; 63 g ai/ha): 0
- Pre-emerge herbicidal activity, phytotoxicity rating IPOHE ([16]; 250 g ai/ha): 0
- Pre-emerge herbicidal activity, phytotoxicity rating DIGSA ([17]; 63 g ai/ha): 30
- Pre-emerge herbicidal activity, phytotoxicity rating DIGSA ([17]; 250 g ai/ha): 100
- Pre-emerge herbicidal activity, phytotoxicity rating CHEAL ([18]; 63 g ai/ha): 100
- Pre-emerge herbicidal activity, phytotoxicity rating CHEAL ([18]; 250 g ai/ha): 100
- Pre-emerge herbicidal activity, phytotoxicity rating CASOB ([19]; 63 g ai/ha): 0
- Pre-emerge herbicidal activity, phytotoxicity rating CASOB ([19]; 250 g ai/ha): 0
- Pre-emerge herbicidal activity, phytotoxicity rating SETVI ([20]; 63 g ai/ha): 0
- Pre-emerge herbicidal activity, phytotoxicity rating SETVI ([20]; 250 g ai/ha): 99
- Pre-emerge herbicidal activity, phytotoxicity rating ECHCG ([21]; 63 g ai/ha): 0
- Pre-emerge herbicidal activity, phytotoxicity rating ECHCG ([21]; 250 g ai/ha): 95
- Pre-emerge phytotoxicity rating, crop damage CORN ([22]; 63 g ai/ha): 0
- Pre-emerge phytotoxicity rating, crop damage CORN ([22]; 250 g ai/ha): 0
- Pre-emerge phytotoxicity rating, crop damage RICE ([23]; 63 g ai/ha): 0
- Pre-emerge phytotoxicity rating, crop damage RICE ([23]; 250 g ai/ha): 70
